Key:
Progesterone receptor = target: T1, Progesterone receptor (Homo sapiens, UniProt P06401); assay type: functional
T1 sequence (P06401 whole entry): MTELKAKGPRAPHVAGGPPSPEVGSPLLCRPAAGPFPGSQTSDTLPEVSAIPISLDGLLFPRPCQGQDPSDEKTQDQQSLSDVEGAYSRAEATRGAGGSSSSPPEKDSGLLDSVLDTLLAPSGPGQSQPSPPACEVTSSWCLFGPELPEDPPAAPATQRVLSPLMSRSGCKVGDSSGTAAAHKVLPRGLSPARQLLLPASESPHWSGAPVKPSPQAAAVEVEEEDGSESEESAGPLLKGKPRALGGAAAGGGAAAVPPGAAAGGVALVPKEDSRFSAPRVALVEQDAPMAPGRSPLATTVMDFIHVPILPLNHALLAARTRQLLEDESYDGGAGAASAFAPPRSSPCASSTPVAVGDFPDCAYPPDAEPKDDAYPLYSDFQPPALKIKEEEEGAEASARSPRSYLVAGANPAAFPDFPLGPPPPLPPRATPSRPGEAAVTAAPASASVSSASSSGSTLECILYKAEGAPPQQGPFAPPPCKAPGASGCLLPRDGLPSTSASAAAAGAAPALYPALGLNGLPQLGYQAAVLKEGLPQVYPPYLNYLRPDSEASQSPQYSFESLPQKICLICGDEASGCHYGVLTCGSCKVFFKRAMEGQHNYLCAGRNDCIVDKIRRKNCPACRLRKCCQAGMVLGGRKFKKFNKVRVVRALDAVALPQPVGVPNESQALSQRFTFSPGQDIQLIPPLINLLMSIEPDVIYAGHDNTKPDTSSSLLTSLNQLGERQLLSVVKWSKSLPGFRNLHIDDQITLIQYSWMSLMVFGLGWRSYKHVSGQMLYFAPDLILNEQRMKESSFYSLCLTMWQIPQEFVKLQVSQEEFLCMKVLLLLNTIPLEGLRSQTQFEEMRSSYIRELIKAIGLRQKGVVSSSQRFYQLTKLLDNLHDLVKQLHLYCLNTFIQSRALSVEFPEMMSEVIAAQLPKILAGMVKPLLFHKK

[1] = target: T2, Alpha-2A adrenergic receptor (Homo sapiens, UniProt P08913); assay type: functional, cell-based
T2 sequence (P08913 whole entry): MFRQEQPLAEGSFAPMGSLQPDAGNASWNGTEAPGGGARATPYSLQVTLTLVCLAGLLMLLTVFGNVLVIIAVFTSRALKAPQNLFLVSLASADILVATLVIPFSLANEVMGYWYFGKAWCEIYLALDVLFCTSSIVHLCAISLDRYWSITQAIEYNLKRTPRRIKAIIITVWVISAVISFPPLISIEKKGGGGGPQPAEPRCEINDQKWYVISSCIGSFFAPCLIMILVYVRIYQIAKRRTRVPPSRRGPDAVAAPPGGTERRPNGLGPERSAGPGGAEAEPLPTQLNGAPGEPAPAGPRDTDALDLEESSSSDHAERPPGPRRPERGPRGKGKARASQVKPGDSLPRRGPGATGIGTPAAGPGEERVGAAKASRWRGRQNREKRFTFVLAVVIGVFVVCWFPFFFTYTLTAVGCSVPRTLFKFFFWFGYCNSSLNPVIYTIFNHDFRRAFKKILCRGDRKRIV

[2] = target: T3, Prostaglandin G/H synthase 1 (Rattus norvegicus, UniProt Q63921); assay type: functional
T3 sequence (Q63921 whole entry): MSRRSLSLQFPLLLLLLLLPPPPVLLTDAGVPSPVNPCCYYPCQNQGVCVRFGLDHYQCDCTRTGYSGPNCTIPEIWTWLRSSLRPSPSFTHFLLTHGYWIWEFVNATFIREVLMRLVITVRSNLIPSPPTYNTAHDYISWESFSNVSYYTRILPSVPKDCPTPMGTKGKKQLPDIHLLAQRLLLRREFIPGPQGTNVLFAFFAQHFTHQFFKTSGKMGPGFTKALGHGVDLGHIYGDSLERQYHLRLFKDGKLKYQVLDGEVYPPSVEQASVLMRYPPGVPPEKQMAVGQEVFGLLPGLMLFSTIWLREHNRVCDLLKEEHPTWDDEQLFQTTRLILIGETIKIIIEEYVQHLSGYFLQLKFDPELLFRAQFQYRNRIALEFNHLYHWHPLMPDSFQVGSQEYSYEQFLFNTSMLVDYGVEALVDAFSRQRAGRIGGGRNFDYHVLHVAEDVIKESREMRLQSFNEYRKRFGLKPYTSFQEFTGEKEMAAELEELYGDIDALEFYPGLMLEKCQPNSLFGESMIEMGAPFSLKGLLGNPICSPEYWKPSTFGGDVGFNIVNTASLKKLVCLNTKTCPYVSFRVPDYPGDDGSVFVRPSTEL

Melanocortin receptor 3 = Melanocortin receptor 3 (Homo sapiens, UniProt P41968)
Melanocortin receptor 3, sequence (P41968 whole entry): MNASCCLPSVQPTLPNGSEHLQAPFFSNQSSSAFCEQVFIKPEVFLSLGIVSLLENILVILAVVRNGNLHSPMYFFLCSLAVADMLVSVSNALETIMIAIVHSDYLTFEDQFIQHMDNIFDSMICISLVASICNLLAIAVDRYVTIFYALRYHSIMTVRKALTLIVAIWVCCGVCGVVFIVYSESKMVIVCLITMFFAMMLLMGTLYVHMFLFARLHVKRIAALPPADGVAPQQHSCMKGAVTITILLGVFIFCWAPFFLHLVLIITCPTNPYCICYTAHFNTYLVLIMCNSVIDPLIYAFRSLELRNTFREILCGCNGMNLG

[3] = target: T4, Gamma-aminobutyric acid receptor subunit alpha-1 (Rattus norvegicus, UniProt P62813); assay type: functional
T4 sequence (P62813 whole entry): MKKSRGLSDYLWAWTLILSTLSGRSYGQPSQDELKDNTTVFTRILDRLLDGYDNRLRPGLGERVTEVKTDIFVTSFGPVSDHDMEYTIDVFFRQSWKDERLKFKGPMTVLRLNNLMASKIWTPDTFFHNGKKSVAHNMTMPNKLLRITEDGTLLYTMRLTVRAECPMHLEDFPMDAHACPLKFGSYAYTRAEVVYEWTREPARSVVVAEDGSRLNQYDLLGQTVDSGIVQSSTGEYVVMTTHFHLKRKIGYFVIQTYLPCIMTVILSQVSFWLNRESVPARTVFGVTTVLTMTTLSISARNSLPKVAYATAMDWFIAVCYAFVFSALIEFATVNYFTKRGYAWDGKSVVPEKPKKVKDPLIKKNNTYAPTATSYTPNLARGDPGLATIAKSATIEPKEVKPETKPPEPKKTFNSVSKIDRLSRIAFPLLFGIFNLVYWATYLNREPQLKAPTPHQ

[4] = target: T5, 5-hydroxytryptamine receptor 2C (Homo sapiens, UniProt P28335)
T5 sequence (P28335 whole entry): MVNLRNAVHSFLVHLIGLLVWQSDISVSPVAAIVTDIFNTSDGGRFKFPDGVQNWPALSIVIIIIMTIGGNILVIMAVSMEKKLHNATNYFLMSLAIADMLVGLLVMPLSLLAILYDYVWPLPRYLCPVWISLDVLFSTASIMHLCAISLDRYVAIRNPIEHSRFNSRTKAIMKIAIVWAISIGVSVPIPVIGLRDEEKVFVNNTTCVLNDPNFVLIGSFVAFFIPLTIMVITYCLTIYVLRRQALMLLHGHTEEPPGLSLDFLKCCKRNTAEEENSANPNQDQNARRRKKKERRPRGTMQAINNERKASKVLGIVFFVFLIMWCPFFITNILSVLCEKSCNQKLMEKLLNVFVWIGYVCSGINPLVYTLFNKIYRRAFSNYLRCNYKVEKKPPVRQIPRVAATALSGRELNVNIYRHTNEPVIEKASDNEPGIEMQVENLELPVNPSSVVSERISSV

[5] = target: T4, Gamma-aminobutyric acid receptor subunit alpha-1
[6] = target: Growth hormone secretagogue receptor type 1 (Homo sapiens, UniProt Q92847)
Growth hormone secretagogue receptor type 1, sequence (Q92847 whole entry): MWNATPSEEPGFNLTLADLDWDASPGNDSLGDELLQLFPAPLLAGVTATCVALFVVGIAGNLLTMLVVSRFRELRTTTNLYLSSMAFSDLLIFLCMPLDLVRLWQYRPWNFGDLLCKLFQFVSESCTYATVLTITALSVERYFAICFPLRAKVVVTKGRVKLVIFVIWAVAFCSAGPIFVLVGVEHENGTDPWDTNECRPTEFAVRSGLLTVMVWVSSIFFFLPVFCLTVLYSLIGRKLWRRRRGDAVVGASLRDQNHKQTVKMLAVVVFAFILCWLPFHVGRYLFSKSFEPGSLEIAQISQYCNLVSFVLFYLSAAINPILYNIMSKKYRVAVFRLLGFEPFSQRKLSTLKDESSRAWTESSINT

Histamine H3 receptor = Histamine H3 receptor (Homo sapiens, UniProt Q9Y5N1)
Histamine H3 receptor, sequence (Q9Y5N1 whole entry): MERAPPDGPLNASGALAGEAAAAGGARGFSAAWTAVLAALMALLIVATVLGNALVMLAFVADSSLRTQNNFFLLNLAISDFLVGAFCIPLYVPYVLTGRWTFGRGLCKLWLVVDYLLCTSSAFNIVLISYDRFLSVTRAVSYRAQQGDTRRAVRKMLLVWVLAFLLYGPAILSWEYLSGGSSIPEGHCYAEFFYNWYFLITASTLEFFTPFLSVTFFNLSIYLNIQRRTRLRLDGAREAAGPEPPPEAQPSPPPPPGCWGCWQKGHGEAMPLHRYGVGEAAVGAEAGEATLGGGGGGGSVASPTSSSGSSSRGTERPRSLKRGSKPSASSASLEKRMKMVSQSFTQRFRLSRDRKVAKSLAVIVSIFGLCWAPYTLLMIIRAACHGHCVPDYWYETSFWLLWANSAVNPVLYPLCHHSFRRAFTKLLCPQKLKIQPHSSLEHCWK
Note: assay procedure not described here.

| SMILES | AC50 (Progesterone receptor) [µM] | AC50 [1] [µM] | AC50 [2] [µM] | AC50 (Melanocortin receptor 3) [µM] | AC50 [3] [µM] | AC50 [4] [µM] | AC50 [5] [µM] | AC50 [6] [µM] | AC50 (Histamine H3 receptor) [µM] |
| --- | --- | --- | --- | --- | --- | --- | --- | --- | --- |
| COc1ccc(/C=C/C(=O)Nc2ccccc2C(=O)O)cc1OC | > 30 | > 30 | 7.4 | > 30 | > 30 | > 30 | > 30 | > 30 | > 30 |
| NCCCC(O)(P(=O)(O)O)P(=O)(O)O [ALENDRONIC ACID] | – | > 10 | – | > 30 | > 10 | > 30 | > 10 | > 30 | > 10 |
| Nc1ccc(C(=O)O)c(O)c1 [AMINOSALICYLIC ACID] | > 30 | > 30 | > 30 | > 30 | > 30 | > 30 | > 30 | > 30 | > 30 |
| COc1cc(OC)c(C(=O)CCCN2CCCC2)c(OC)c1 [BUFLOMEDIL] | > 30 | > 30 | > 30 | > 30 | > 30 | > 30 | > 30 | > 30 | 20 |
| CS(=O)(=O)OCCCCOS(C)(=O)=O [BUSULFAN] | > 30 | > 30 | > 30 | > 30 | > 30 | > 30 | – | > 30 | > 30 |
| CCCCCCNC(=O)n1cc(F)c(=O)[nH]c1=O [CARMOFUR] | > 30 | > 30 | > 30 | > 30 | > 30 | > 30 | > 30 | > 30 | > 30 |
| CC(C)(C)NCC(O)c1cc(Cl)c(N)c(Cl)c1 (centres undefined) [CLENBUTEROL] | > 30 | > 30 | > 30 | > 30 | > 30 | > 30 | > 30 | > 30 | > 30 |
| COc1cccc2c1C(=O)c1c(O)c3c(c(O)c1C2=O)C[C@@](O)(C(C)=O)C[C@@H]3O[C@H]1C[C@H](N)[C@H](O)[C@H](C)O1 [DAUNORUBICIN] | > 3 | – | > 30 | 29 | > 30 | 14.1 | > 30 | 5.17 | 18 |
| CC(=O)OCC(CCn1cnc2cnc(N)nc21)COC(C)=O [FAMCICLOVIR] | – | > 10 | > 30 | > 30 | > 10 | > 30 | > 10 | > 30 | > 10 |
| Nc1ccn([C@@H]2O[C@H](CO)[C@@H](O)C2(F)F)c(=O)n1 [GEMCITABINE] | > 30 | > 10 | > 30 | > 30 | > 10 | > 30 | > 10 | > 30 | > 10 |
| COC1=C(OC)C(=O)C(CCCCCCCCCCO)=C(C)C1=O [IDEBENONE] | – | > 10 | > 30 | > 30 | > 10 | > 10 | > 10 | > 30 | > 10 |
| Nc1nc2c(c(=O)[nH]1)N(C=O)C(CNc1ccc(C(=O)N[C@@H](CCC(=O)O)C(=O)O)cc1)CN2 (some centres undefined) [LEUCOVORIN] | > 30 | > 30 | > 30 | > 30 | > 30 | > 30 | > 30 | > 30 | > 30 |
| CCn1cc(C(=O)O)c(=O)c2cc(F)c(N3CCN(C)CC3)cc21 [PEFLOXACIN] | > 30 | > 30 | > 30 | > 30 | > 30 | > 30 | > 30 | > 30 | > 30 |
| C[n+]1ccccc1/C=N/O [PRALIDOXIME] | – | > 30 | – | – | > 30 | > 30 | > 30 | – | – |
| CCCNC(C)C(=O)Nc1ccccc1C (centres undefined) [PRILOCAINE] | 3.9 | > 30 | > 30 | > 30 | > 30 | > 30 | – | > 30 | > 30 |
| CC(C)CC(N(C)C)C1(c2ccc(Cl)cc2)CCC1 (centres undefined) [SIBUTRAMINE] | – | > 30 | > 30 | > 30 | > 10 | > 30 | > 10 | > 30 | > 10 |
| [H]/N=C(/N)N[C@H]1[C@H](O)[C@@H](O)[C@H](O[C@@H]2O[C@@H](C)[C@](O)(C=O)[C@H]2O[C@@H]2O[C@@H](CO)[C@H](O)[C@@H](O)[C@@H]2NC)[C@@H](N/C(N)=N\[H])[C@@H]1O [STREPTOMYCIN] | > 30 | > 30 | > 30 | > 30 | > 30 | > 30 | > 30 | > 30 | > 30 |
| Cc1cccc(N(C)C(=S)Oc2ccc3ccccc3c2)c1 [TOLNAFTATE] | > 30 | > 10 | > 10 | > 10 | > 10 | > 30 | > 10 | > 10 | – |
| CN1[C@@H]2CC[C@H]1C[C@@H](OC(=O)c1c[nH]c3ccccc13)C2 [TROPISETRON] | – | > 30 | > 30 | > 30 | 0.5 | > 30 | > 30 | > 30 | > 30 |
| COc1ccc(C(CN(C)C)C2(O)CCCCC2)cc1 (centres undefined) [VENLAFAXINE] | – | > 10 | > 30 | > 30 | > 10 | > 30 | > 10 | > 30 | 6.8 |

Source: ChEMBL document CHEMBL5291721, “A preclinical secondary pharmacology resource illuminates target-adverse drug reaction associations of marketed drugs” (Nat Commun, 2023)
